Patent US5728736A, “Reduction of hair growth” (priority 1995, dated 1998)
Each block holds one molecule with its values, some of them ahead of it.

Assays:
[1] = system: hair growth of hamster flank organs; experiment: Golden Syrian hamster assay (flank organ hair mass after topical application); assay type: in vivo; settings: for Treated (mg) hair mass: treated flank organ, mean ± SEM; for Percent Inhibition (mean ± SEM) of hair growth: vs vehicle treated side
Text: Male intact Golden Syrian hamsters are considered acceptable models for human beard hair growth in that they display oval shaped flank organs, one of each side, each about 8 mm. in major diameter, which growth thick black and coarse hair similar to human beard hair. These organs produce hair in response to androgens in the hamster. To evaluate the effectiveness of a particular arginase inhibitor the flank organs of each of a group of hamsters are depilated by applying a thioglycolate based chemical depilatory (Surgex). To one organ of each animal 10 μl of vehicle alone once a day is applied, while to the other organ of each animal an equal amount of vehicle containing an arginase inhibitor is applied. After thirteen applications (one application per day for five days a week), the flank organs are shaved and the amount of recovered hair (hair mass) from each is weighed. Percent-reduction of hair growth is calculated by subtracting the hair mass (mg) value of the test compound treated side from the hair mass value of the vehicle treated side; the delta value obtained is then divided by the hair mass value of the vehicle treated side, and the resultant number is multiplied by 100.
The above-described assay will be referred to herein as the "Golden Syrian hamster" assay.

[2] = system: hair follicle arginase; experiment: In vitro assay for inhibitors of hair follicle arginase; assay type: biochemical; settings: compound 10 μM, hamster flank organ hair follicle extract, 5 minutes at 37° C., ornithine formation by HPLC
Experimental: Extracts of hair follicles were obtained by excising and sonicating hair follicles obtained from hamster flank organs. The hair follicles from the hamster flank organ were excised and sonicated in a 0.01M Tris-buffered solution, pH 7.5. The sonicated extracts were centrifuged at 12,000×g, and the supernatant was used to measure arginase activity. Final reaction volumes were achieved by using 90 μl of the follicle supernatant, which was mixed with 100 μl of the Tris buffer (with or without the inhibitor), and 10 μl of 20 mM arginine incubated for 5 minutes at 37° C. The enzyme reaction was stopped by separating the enzyme from the substrate with a 10,000 molecular weight cut off filter. The product formed, ornithine, was separated from the substrate arginine using reverse phase HPLC methodology. An aliquot of the reaction was used to generate 20 μl of the filtrate which was reacted with 20 μl of O-pthalaldehyde (OPA) reagent. This reagent rapidly reacts with all primary amino acids to form fluorescent adducts that are separated on a C18 column (15 cm×3.9 mm). The 40 μl of derivatized sample is injected into the HPLC column and eluted with a stepwise gradient starting at 100% Buffer A (0.024M sodium acetate, 0.024M sodium phosphate, pH 4.0/methanol/tetrahydrofuran in a ratio of 81:15:4) and ending in a 50/50 mixture of Buffer A and Buffer B (methanol/water/tetrahydrofuran in a ratio of 75:15:10). A fluorescent detector was used to monitor the amino acid peaks as they eluted off the column.

[3] = dose 10%, vehicle B, pH 7.0, 13 applications
[4] = dose 7.5%, vehicle A, pH 3.5, 13 applications
[5] = dose 10%, vehicle H2O, 13 applications
[6] = dose 10%, vehicle A, pH not given, 13 applications
[7] = dose 10%, vehicle A, pH 6.5, 13 applications

% Inhibition of hair follicle arginase [2]: 64%
Structure (SMILES): Cc1ccc(S(=O)(=O)N[C@@H](CCCNC(=N)N)C(=O)O)cc1 [N-Tosyl-L-arginine]
Treated (mg) hair mass [1, 4]: 0.83 ± .13 mg
Percent Inhibition (mean ± SEM) of hair growth [1, 4]: 42 ± 13

% Inhibition of hair follicle arginase [2]: 98%
Structure (SMILES): N=C(NO)NCCC[C@H](N)C(=O)O [N^-G -Hydroxy-L-arginine]
Treated (mg) hair mass [1, 6]: 0.97 ± .19 mg
Percent Inhibition (mean ± SEM) of hair growth [1, 6]: 66 ± 6

Second part, the molecule before the results:

Structure (SMILES): CC(NC(CCCNC(=N)N)C(=O)O)C(=O)O (stereo not drawn) [Octopine]
Treated (mg) hair mass [1, 3]: 0.45 ± .07 mg
Percent Inhibition (mean ± SEM) of hair growth [1, 3]: 68 ± 6
% Inhibition of hair follicle arginase [2]: 50%

Structure (SMILES): CC(C)(N)C(=O)O [α-Aminoisobutyric acid]
Treated (mg) hair mass [1, 5]: 1.96 ± 2.1 mg
Percent Inhibition (mean ± SEM) of hair growth [1, 5]: 34 ± 9
% Inhibition of hair follicle arginase [2]: 27%

Structure (SMILES): CCN=C=NCCCN(C)C [1-Ethyl-3-(3-dimethylaminopropyl)-carbodiimide]
Treated (mg) hair mass [1, 7]: 0.9 ± 0.9 mg
Percent Inhibition (mean ± SEM) of hair growth [1, 7]: 57 ± 5
% Inhibition of hair follicle arginase [2]: 64%
